Assay results published in article PMC9510126, “Hydrophobicity is a key determinant in the activity of arginine-rich cell penetrating peptides” (Scientific Reports, 2022).
Entries after “also recorded” stand apart in the source; their conditions may differ. Ends that are not written are not given here.

Assays:
[1] = Zeta potential of BMP LUVs in contact with peptides; format: binding; settings: 0.33 µM peptide, 50 µM lipid (P:L 1:150), PBS pH 5.5, 25 °C, triplicate
Method: The interaction partners of CPPs that may mediate direct plasma membrane translocation remain undefined. It is therefore unclear which liposome system can be used to probe this activity. […] This permeabilization is consistent with a leaky fusion process, where peptide-induced contact between liposomes is required for leakage. In order to assess whether similar processes are involved with peptides of the d(X)TAT series, LUVs were loaded with calcein to probe leakage. LUVs were prepared with either 65:15:20 PC:PE:Chol or 77:19:4 BMP:PC:PE, lipid compositions consistent with plasma membrane /early endosomes (PM/EE) bilayers or late endosome (LE) bilayers, respectively[36],[37]. Peptides were added to liposomes suspensions at various peptide-to-lipid ratios, and the release of calcein was monitored by gel filtration. […] The mixtures were then added to a folded capillary zeta cell for measurement on a Zetasizer Nano-zs (Malvern). Instrument was set to hold at 25 °C and automatically determine the optimal voltage and attenuator positions for each measurement. Each sample was set to be measured three times by the instrument and the average of these measurements was used to determine the zeta potential for a single sample. This experiment was performed in triplicate for each condition.

MDA-MB-231 cells = test: Delivery of TMR-k5 probe into live cells (nuclear staining); format: cell-based, human; settings: MDA-MB-231, d(X)TAT at various concentrations + TMR-k5 20 μM, 1 h, fluorescence microscopy, biological triplicates
Source text: To test the relative delivery efficiency of the d(X)TAT peptides, the cell lines MDA-MB-231 (epithelial-like, human breast cancer, spindle-shaped) and Neuro-2a (mouse neuroblastoma with neuronal and amoeboid stem cell morphology) were chosen. These cell lines are routinely used in cancer research, neuroscience, and toxicology. In the context of this study, we rationalized that the distinct differences in origin and characteristics between MDA-MB-231 and Neuro-2a properties may be useful to assess the generality of the results obtained. MDA-MB-231 or Neuro-2a cells were incubated with d(X)TAT peptides at various concentrations and TMR-k5 (20 μM) for 1 h. Cells were then washed, incubated with the DNA stain Hoechst and the live/dead marker SYTOX green (or SYTOX blue), and imaged by fluorescence microscopy. The localization of TMR-k5 in individual nuclei was then assessed by measuring the overlap between TMR and Hoechst signals (Fig. 2, Figure S13). […] This is because, in our experience, dfTAT and dfTAT analogs display a threshold behavior where, below a certain endosomal concentration, endosomal leakage is not achieved. In contrast above this threshold most late endosomes are permeabilized. […] Our rationale was therefore to titrate cells with different concentrations of d(X)TAT agents, monitor how many cells display cytosolic/nuclear delivery of TMR-k5, and compare the different d(X)TAT peptides.
MDA-MB-231 and Neuro2a cells obtained from ATCC (breast cancer-derived epithelial) were cultured in humidified atmosphere at 5% CO2 and 37 °C. Cells were seeded in plastic 48-well plates (Fisher) for quantitative analysis or 8-well Labtek II plates (Fisher) for qualitative imaging at 100× magnification. The cells were grown to 80–90% confluency in a 37 °C humidified atmosphere containing 5% CO2. Cells were washed three times with Leibovitz’s L15 media (L15) (Fisher). Cells were then incubated with peptide and 20 µM of the TMR-k5 pentalysine probe at 37 °C for 1 h. This was followed by washing the cells three times with L15 supplemented with heparin (Sigma-Aldrich) (1 mg/mL) and an extra L15 wash. […] Additionally, the cell permeable dye Hoechst 33342 (Thermo Fisher Scientific o) was used for nuclear staining. Cells were imaged using an EVOS FL Auto 2 inverted microscope (Thermo Fisher Scientific). The microscope is equipped with a heating chamber maintained at 37 °C. Images were acquired using bright field imaging and five fluorescence filter sets: CFP (Ex = 436 ± 10 nm, Em = 480 ± 20 nm), RFP (Ex = 560 ± 20 nm, Em = 630 ± 35 nm), FITC (Ex = 488 ± 10 nm Em = 520 ± 20 nm), DAPI (Ex = 350 ± 50 nm, Em = 460 ± 25 nm), […]. For image viewing and processing individual images, the Celleste 4.0 software (Thermo Fisher Scientific) was used. Nuclear regions in 20× images where identified using Hoechst staining (the quantification process is described in Figure S13). The intensity of these objects in the TMR channel was then determined using the Celleste software. Cells stained by the SYTOX or DRAQ dyes were considered dead and not counted as positive for delivery. Cells displaying a nuclear TMR-k5 fluorescence above the fluorescence threshold determined for TMR-k5 alone were considered positive for delivery (if excluding SYTOX or DRAQ7 stain, and if visually showing stained nucleoli for confirmation of intracellular localization). The percentage of cells positive for TMR-k5 nuclear staining was then calculated, using Hoechst-stained cells to count the total number of cells present. […] Instead, this assay quantifies the number of cells in which the nuclear fluorescence of TMR-k5 is above a detection threshold. This threshold is dependent on the microscope, imaging conditions, and the concentration of TMR-k5 used during incubation (Figure S13). The reproducibility of all the experiments was assessed by performing experiments with independent batches of cell cultures on three different days (i.e., biological triplicates). […]

d(K(Ac))TAT: disulfide dimer of CXRKKRRQRRRG with X = lysine conjugated to an acetyl group (CK(Ac)RKKRRQRRRG-NH2; also: disulfide dimer)
effect on apparent zeta potential of BMP-rich LUVs [1]: largest effect
TMR-k5 delivery activity (cells with TMR-k5 nuclear staining) (MDA-MB-231 cells): little to no TMR-k5 delivery is detected; also recorded: no detectable delivery activity; also recorded: does not have a delivery activity detectable
